Experimental data reported in the supplement of paper PMC11061612.

What was measured:
Experiment in all cases: Bliss excess, mean over the matrix (fraction); higher = more synergy
[1] = system: LU-165 (Small Cell Lung Carcinoma)
Method in brief: (§1)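 Bliss excess equals the observed combination effect minus the expected value EA + EB − EA·EB, where EA and EB are the effects of each agent alone. Combination Emax is the second-highest inhibition within the matrix. Inhibition was scaled from CellTiter-Glo 2.0 luminescence, with 0 set by vehicle wells and 1 by blank wells, after 72 hours of two-drug dosing of cells plated in 1536-well plates.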

[2] = system: JHU-022 (Oral Cavity Carcinoma)
Method in brief: as §1

[3] = system: Jurkat (T-Lymphoblastic Leukemia)
Method in brief: as §1

[4] = system: GCT (Other Solid Carcinomas)
Method in brief: as §1

[5] = system: LS-411N (Colorectal Carcinoma)
Method in brief: as §1

[6] = system: JHH-2 (Hepatocellular Carcinoma)
Method in brief: as §1

KP-N-YN (Neuroblastoma) = system: KP-N-YN (Neuroblastoma)
Method in brief: as §1

[7] = system: 22RV1 (Prostate Carcinoma)
Method in brief: as §1

5637 (Bladder Carcinoma) = system: 5637 (Bladder Carcinoma)
Method in brief: as §1

NB13 (Neuroblastoma) = system: NB13 (Neuroblastoma)
Method in brief: as §1

IM-9 (Non-Cancerous) = system: IM-9 (Non-Cancerous)
Method in brief: as §1

EW-16 (Ewing's Sarcoma) = system: EW-16 (Ewing's Sarcoma)
Method in brief: as §1

[8] = system: NCI-H2228 (Lung Adenocarcinoma)
Method in brief: as §1

A204 (Rhabdomyosarcoma) = system: A204 (Rhabdomyosarcoma)
Method in brief: as §1

[9] = system: NCI-H2087 (Lung Adenocarcinoma)
Method in brief: as §1

[10] = system: JVM-2 (B-Cell Non-Hodgkin's Lymphoma)
Method in brief: as §1

RH-41 (Rhabdomyosarcoma) = system: RH-41 (Rhabdomyosarcoma)
Method in brief: as §1

[11] = system: JIMT-1 (Breast Carcinoma)
Method in brief: as §1

[12] = system: EPLC-272H (Other Solid Carcinomas)
Method in brief: as §1

[13] = system: KYSE-220 (Esophageal Squamous Cell Carcinoma)
Method in brief: as §1

| SMILES | Bliss excess [1] | Bliss excess [2] | Bliss excess [3] | Bliss excess [4] | Bliss excess [5] | Bliss excess [6] | Bliss excess (KP-N-YN (Neuroblastoma)) | Bliss excess [7] | Bliss excess (5637 (Bladder Carcinoma)) | Bliss excess (NB13 (Neuroblastoma)) | Bliss excess (IM-9 (Non-Cancerous)) | Bliss excess (EW-16 (Ewing's Sarcoma)) | Bliss excess [8] | Bliss excess (A204 (Rhabdomyosarcoma)) | Bliss excess [9] | Bliss excess [10] | Bliss excess (RH-41 (Rhabdomyosarcoma)) | Bliss excess [11] | Bliss excess [12] | Bliss excess [13] |
| --- | --- | --- | --- | --- | --- | --- | --- | --- | --- | --- | --- | --- | --- | --- | --- | --- | --- | --- | --- | --- |
| CC1(C)CCC(CN2CCN(c3ccc(C(=O)NS(=O)(=O)c4ccc(NCC5CCOCC5)c([N+](=O)[O-])c4)c(Oc4cnc5[nH]ccc5c4)c3)CC2)=C(c2ccc(Cl)cc2)C1 [Venetoclax] + C=CCn1c(=O)c2cnc(Nc3ccc(N4CCN(C)CC4)cc3)nc2n1-c1cccc(C(C)(C)O)n1 [AZD1775] (first compound max 1 µM, partner max 1 µM) | -0.0506 | -0.0218 | -0.0183 | -0.0339 | -0.0856 | 0.0531 | 0.0109 | 0.0156 | -0.0414 | 0.078 | 0.0228 | -0.0504 | -0.0602 | -0.0433 | -0.0408 | 0.0333 | 0.0778 | -0.0568 | -0.025 | -0.0321 |
| COc1nnc2ccc(N3CCC(c4ccc(OCCN5CCN(C)C(=O)[C@H]5C)cc4)CC3)nn12 [AZD5153] + Cc1c2c(nn1C)CSCc1cc(n(C)n1)CSc1cc(c3ccccc3c1)OCCCc1c(C(=O)O)n(C)c3c-2c(Cl)ccc13 [AZD5991] (first compound max 1 µM, 7x7, partner max 1 µM) | -0.0173 | -0.0703 | 0.0006 | -0.0425 | 0.0068 | -0.119 | -0.0362 | 0.0107 | -0.0555 | 0.0066 | -0.127 | -0.0412 | -0.0261 | -0.0116 | -0.0328 | -0.0404 | 0.012 | 0.0155 | -0.026 | -0.0229 |
| Cc1c2c(nn1C)CSCc1cc(n(C)n1)CSc1cc(c3ccccc3c1)OCCCc1c(C(=O)O)n(C)c3c-2c(Cl)ccc13 [AZD5991] + CC1(C)CCC(CN2CCN(c3ccc(C(=O)NS(=O)(=O)c4ccc(NCC5CCOCC5)c([N+](=O)[O-])c4)c(Oc4cnc5[nH]ccc5c4)c3)CC2)=C(c2ccc(Cl)cc2)C1 [Venetoclax] (first compound max 1 µM, 7x7, partner max 1 µM) | -0.014 | -0.0291 | 0.0116 | -0.0272 | 0 | -0.0156 | 0.0865 | -0.0149 | -0.0474 | 0.0393 | 0.218 | -0.0326 | -0.0122 | -0.0226 | -0.0304 | 0.0109 | 0.0582 | -0.0155 | -0.015 | 0.0093 |
| CC(=O)c1c(C)c2cnc(Nc3ccc(N4CCNCC4)cn3)nc2n(C2CCCC2)c1=O [Palbociclib] + Cc1c2c(nn1C)CSCc1cc(n(C)n1)CSc1cc(c3ccccc3c1)OCCCc1c(C(=O)O)n(C)c3c-2c(Cl)ccc13 [AZD5991] (first compound max 10 µM, 7x7, partner max 1 µM) | -0.0347 | -0.0971 | -0.083 | -0.049 | -0.0397 | -0.0475 | 0.0562 | -0.0781 | -0.0342 | 0.0041 | 0.0229 | -0.0356 | -0.0537 | -0.026 | -0.0561 | -0.0206 | -0.0028 | -0.0348 | -0.0979 | -0.0645 |
| CC1(C)CCC(CN2CCN(c3ccc(C(=O)NS(=O)(=O)c4ccc(NCC5CCOCC5)c([N+](=O)[O-])c4)c(Oc4cnc5[nH]ccc5c4)c3)CC2)=C(c2ccc(Cl)cc2)C1 [Venetoclax] + Cn1cnc2c(F)c(Nc3ccc(Br)cc3Cl)c(C(=O)NOCCO)cc21 [Selumetinib] (first compound max 1 µM, 7x7, partner max 3 µM) | -0.0588 | -0.0181 | 0.0054 | -0.0399 | -0.0148 | 0.016 | -0.0102 | -0.0091 | -0.0194 | -0.0837 | 0.111 | -0.0561 | -0.0135 | -0.0293 | -0.0207 | 0.0617 | 0.0237 | -0.0429 | -0.0184 | 0.0102 |
| CC1(C)CCC(CN2CCN(c3ccc(C(=O)NS(=O)(=O)c4ccc(NCC5CCOCC5)c([N+](=O)[O-])c4)c(Oc4cnc5[nH]ccc5c4)c3)CC2)=C(c2ccc(Cl)cc2)C1 [Venetoclax] + CN(C)CCCOc1ccc(-c2ccc3ncc4c(c3c2)n(C2CCOCC2)c(=O)n4C)cn1 [AZD0156] (first compound max 1 µM, 7x7, partner max 1 µM) | -0.0309 | -0.0382 | -0.0111 | -0.0404 | -0.0214 | -0.028 | -0.0016 | -0.0277 | -0.0273 | 0.021 | 0.0254 | -0.0659 | -0.0004 | -0.0325 | -0.0389 | 0.0143 | 0.0618 | -0.0819 | -0.0501 | -0.0135 |
| COc1nnc2ccc(N3CCC(c4ccc(OCCN5CCN(C)C(=O)[C@H]5C)cc4)CC3)nn12 [AZD5153] + CCN(CCO)CCCOc1ccc2c(Nc3cc(CC(=O)Nc4cccc(F)c4)[nH]n3)ncnc2c1 [AZD2811] (first compound max 1 µM, 7x7, partner max 1 µM) | -0.06 | -0.0601 | 0.0305 | -0.0201 | -0.0233 | -0.0496 | -0.0355 | -0.0252 | -0.107 | -0.0336 | -0.111 | 0.0068 | -0.0285 | -0.0849 | -0.0645 | -0.0498 | 0.021 | -0.0113 | -0.0387 | 0.0083 |
